According to ChEMBL document CHEMBL3397028, “Synthesis and antimicrobial activity of novel benzoxazine sulfonamide derivatives” (2015):
Values after ≈ are worked out from the molar mass of the structure shown.

How the values were obtained:
Format in all cases: functional
Priestia megaterium = assay: Antimicrobial activity against Bacillus megaterium MTCC 3382 after 18 hrs by broth micro dilution method; conditions: MTCC 3382, 18 h
Pseudomonas aeruginosa = assay: Antimicrobial activity against Pseudomonas aeruginosa MTCC 1034 after 18 hrs by broth micro dilution method; conditions: MTCC 1034, 18 h
Xanthomonas campestris = assay: Antimicrobial activity against Xanthomonas campestris after 18 hrs by broth micro dilution method
Escherichia coli = assay: Antimicrobial activity against Escherichia coli MTCC 1089 after 18 hrs by broth micro dilution method; conditions: MTCC 1089, 18 h
Candida albicans = assay: Antimicrobial activity against Candida albicans MTCC 183 after 48 to 72 hrs by broth micro dilution method

| SMILES | MIC (Priestia megaterium) | MIC (Pseudomonas aeruginosa) | MIC (Xanthomonas campestris) | MIC (Escherichia coli) | MIC (Candida albicans) |
| --- | --- | --- | --- | --- | --- |
| CO[C@H]1/C=C/O[C@@]2(C)Oc3c(C)c(O)c4c(O)c(c(/C=N/N5CCN(C)CC5)c(O)c4c3C2=O)NC(=O)/C(C)=C\C=C\[C@H](C)[C@H](O)[C@@H](C)[C@@H](O)[C@@H](C)[C@H](OC(C)=O)[C@@H]1C [RIFAMPIN] | 64 µg/mL (≈ 77.8 µM) | 32 µg/mL (≈ 38.9 µM) | 32 µg/mL (≈ 38.9 µM) | 64 µg/mL (≈ 77.8 µM) | – |
| COc1ccccc1N1CCN(S(=O)(=O)c2cc3c(cc2C)OCC(=O)N3CC(=O)c2ccccc2)CC1 | 62.5 µg/mL (≈ 117 µM) | 125 µg/mL (≈ 233 µM) | 62.5 µg/mL (≈ 117 µM) | 125 µg/mL (≈ 233 µM) | 62.5 µg/mL (≈ 117 µM) |
| COc1ccc(C(=O)CN2C(=O)COc3cc(C)c(S(=O)(=O)N4CCN(c5ccccc5OC)CC4)cc32)cc1 | 31.2 µg/mL (≈ 55.2 µM) | 31.2 µg/mL (≈ 55.2 µM) | 62.5 µg/mL (≈ 110 µM) | 62.5 µg/mL (≈ 110 µM) | 31.2 µg/mL (≈ 55.2 µM) |
| O=C1COc2ccc(S(=O)(=O)NCCCN3CCN(c4ccc(F)cc4)CC3)cc2N1 | 250 µg/mL (≈ 557 µM) | 62.5 µg/mL (≈ 139 µM) | 125 µg/mL (≈ 279 µM) | 500 µg/mL (≈ 1110 µM) | 250 µg/mL (≈ 557 µM) |
| Cc1cc2c(cc1S(=O)(=O)N1CCN(c3ccc(C(F)(F)F)cc3)CC1)NC(=O)CO2 | 250 µg/mL (≈ 549 µM) | 250 µg/mL (≈ 549 µM) | 500 µg/mL (≈ 1100 µM) | 500 µg/mL (≈ 1100 µM) | 500 µg/mL (≈ 1100 µM) |
| COc1ccc(C(=O)CN2C(=O)COc3cc(C)c(S(=O)(=O)N4CCN(c5ccc(C(F)(F)F)cc5)CC4)cc32)cc1 | 62.5 µg/mL (≈ 104 µM) | 125 µg/mL (≈ 207 µM) | 250 µg/mL (≈ 414 µM) | 250 µg/mL (≈ 414 µM) | 250 µg/mL (≈ 414 µM) |
| Cc1cc2c(cc1S(=O)(=O)NCCCN1CCSCC1)NC(=O)CO2 | 125 µg/mL (≈ 324 µM) | 500 µg/mL (≈ 1300 µM) | 250 µg/mL (≈ 648 µM) | 500 µg/mL (≈ 1300 µM) | 250 µg/mL (≈ 648 µM) |
| OC(Cn1cncn1)(Cn1cncn1)c1ccc(F)cc1F [FLUCONAZOLE] | – | – | – | – | 32 µg/mL (≈ 104 µM) |
| Cc1ccc(C(=O)CN2C(=O)COc3cc(C)c(S(=O)(=O)N4CCN(c5ccc(C(F)(F)F)cc5)CC4)cc32)cc1 | 125 µg/mL (≈ 213 µM) | 31.2 µg/mL (≈ 53.2 µM) | 125 µg/mL (≈ 213 µM) | 62.5 µg/mL (≈ 106 µM) | 250 µg/mL (≈ 425 µM) |
| COc1ccccc1N1CCN(CCCNS(=O)(=O)c2cc3c(cc2C)OCC(=O)N3)CC1 | 250 µg/mL (≈ 527 µM) | 500 µg/mL (≈ 1050 µM) | 500 µg/mL (≈ 1050 µM) | 500 µg/mL (≈ 1050 µM) | 250 µg/mL (≈ 527 µM) |
| COc1ccccc1N1CCN(S(=O)(=O)c2cc3c(cc2C)OCC(=O)N3CC(=O)c2ccc(C)cc2)CC1 | 125 µg/mL (≈ 227 µM) | 62.5 µg/mL (≈ 114 µM) | 125 µg/mL (≈ 227 µM) | 62.5 µg/mL (≈ 114 µM) | 62.5 µg/mL (≈ 114 µM) |
| Cc1cc2c(cc1S(=O)(=O)NCCCN1CCN(c3ccc(C(F)(F)F)cc3)CC1)NC(=O)CO2 | 62.5 µg/mL (≈ 122 µM) | 250 µg/mL (≈ 488 µM) | 62.5 µg/mL (≈ 122 µM) | 250 µg/mL (≈ 488 µM) | 125 µg/mL (≈ 244 µM) |
| COc1ccccc1N1CCN(S(=O)(=O)c2cc3c(cc2C)OCC(=O)N3CC(=O)c2ccc(-c3ccccc3)cc2)CC1 | 62.5 µg/mL (≈ 102 µM) | 250 µg/mL (≈ 409 µM) | 125 µg/mL (≈ 204 µM) | 500 µg/mL (≈ 817 µM) | 500 µg/mL (≈ 817 µM) |
| Cc1cc2c(cc1S(=O)(=O)N1CCN(c3ccc(C(F)(F)F)cc3)CC1)N(CC(=O)c1ccc(Cl)cc1)C(=O)CO2 | 250 µg/mL (≈ 411 µM) | 500 µg/mL (≈ 822 µM) | 500 µg/mL (≈ 822 µM) | 500 µg/mL (≈ 822 µM) | 500 µg/mL (≈ 822 µM) |
| Cc1cc2c(cc1S(=O)(=O)N1CCN(c3ccc(C(F)(F)F)cc3)CC1)N(CC(=O)c1ccc([N+](=O)[O-])cc1)C(=O)CO2 | 31.2 µg/mL (≈ 50.5 µM) | 31.2 µg/mL (≈ 50.5 µM) | 125 µg/mL (≈ 202 µM) | 62.5 µg/mL (≈ 101 µM) | 31.2 µg/mL (≈ 50.5 µM) |
| O=C1COc2ccc(S(=O)(=O)NCCCN3CCN(c4ccccc4)CC3)cc2N1 | 250 µg/mL (≈ 581 µM) | 500 µg/mL (≈ 1160 µM) | 500 µg/mL (≈ 1160 µM) | 500 µg/mL (≈ 1160 µM) | 500 µg/mL (≈ 1160 µM) |
| COc1ccccc1N1CCN(S(=O)(=O)c2cc3c(cc2C)OCC(=O)N3CC(=O)c2cccs2)CC1 | 500 µg/mL (≈ 923 µM) | 250 µg/mL (≈ 462 µM) | 250 µg/mL (≈ 462 µM) | 250 µg/mL (≈ 462 µM) | 250 µg/mL (≈ 462 µM) |
| Cc1cc2c(cc1S(=O)(=O)N1CCN(c3ccc(C(F)(F)F)cc3)CC1)N(CC(=O)c1ccc(-c3ccccc3)cc1)C(=O)CO2 | 125 µg/mL (≈ 192 µM) | 125 µg/mL (≈ 192 µM) | 125 µg/mL (≈ 192 µM) | 250 µg/mL (≈ 385 µM) | 125 µg/mL (≈ 192 µM) |
| COc1ccccc1N1CCN(S(=O)(=O)c2cc3c(cc2C)OCC(=O)N3CC(=O)c2ccc([N+](=O)[O-])cc2)CC1 | 62.5 µg/mL (≈ 108 µM) | 250 µg/mL (≈ 431 µM) | 125 µg/mL (≈ 215 µM) | 250 µg/mL (≈ 431 µM) | 250 µg/mL (≈ 431 µM) |
| Cc1cc2c(cc1S(=O)(=O)N1CCN(c3ccc(C(F)(F)F)cc3)CC1)N(CC(=O)c1cccs1)C(=O)CO2 | 31.2 µg/mL (≈ 53.9 µM) | 31.2 µg/mL (≈ 53.9 µM) | 125 µg/mL (≈ 216 µM) | 125 µg/mL (≈ 216 µM) | 31.2 µg/mL (≈ 53.9 µM) |
| O=C1COc2ccc(S(=O)(=O)NCCCN3CCN(c4ccccc4F)CC3)cc2N1 | 31.2 µg/mL (≈ 69.7 µM) | 62.5 µg/mL (≈ 139 µM) | 62.5 µg/mL (≈ 139 µM) | 125 µg/mL (≈ 279 µM) | 125 µg/mL (≈ 279 µM) |
| COc1ccccc1N1CCN(CCCNS(=O)(=O)c2ccc3c(c2)NC(=O)CO3)CC1 | 31.2 µg/mL (≈ 67.9 µM) | 125 µg/mL (≈ 271 µM) | 125 µg/mL (≈ 271 µM) | 250 µg/mL (≈ 543 µM) | 62.5 µg/mL (≈ 136 µM) |
| COc1ccccc1N1CCN(S(=O)(=O)c2cc3c(cc2C)OCC(=O)N3)CC1 | 250 µg/mL (≈ 599 µM) | 500 µg/mL (≈ 1200 µM) | 500 µg/mL (≈ 1200 µM) | 500 µg/mL (≈ 1200 µM) | 500 µg/mL (≈ 1200 µM) |
| O=C1COc2ccc(S(=O)(=O)NCCCN3CCN(c4ccc(C(F)(F)F)cc4)CC3)cc2N1 | 62.5 µg/mL (≈ 125 µM) | 125 µg/mL (≈ 251 µM) | 125 µg/mL (≈ 251 µM) | 500 µg/mL (≈ 1000 µM) | 125 µg/mL (≈ 251 µM) |
| Cc1cc2c(cc1S(=O)(=O)NCCCN1CCN(c3ccccc3)CC1)NC(=O)CO2 | 250 µg/mL (≈ 562 µM) | 250 µg/mL (≈ 562 µM) | 250 µg/mL (≈ 562 µM) | 250 µg/mL (≈ 562 µM) | 250 µg/mL (≈ 562 µM) |
| Cc1cc2c(cc1S(=O)(=O)NCCCN1CCN(c3ccccc3F)CC1)NC(=O)CO2 | 250 µg/mL (≈ 540 µM) | 250 µg/mL (≈ 540 µM) | 250 µg/mL (≈ 540 µM) | 250 µg/mL (≈ 540 µM) | 250 µg/mL (≈ 540 µM) |
| Cc1cc2c(cc1S(=O)(=O)N1CCN(c3ccc(C(F)(F)F)cc3)CC1)N(CC(=O)c1ccccc1)C(=O)CO2 | 250 µg/mL (≈ 436 µM) | 250 µg/mL (≈ 436 µM) | 250 µg/mL (≈ 436 µM) | 250 µg/mL (≈ 436 µM) | 250 µg/mL (≈ 436 µM) |
| COc1ccccc1N1CCN(S(=O)(=O)c2cc3c(cc2C)OCC(=O)N3CC(=O)c2ccc(Cl)cc2)CC1 | 250 µg/mL (≈ 439 µM) | 250 µg/mL (≈ 439 µM) | 125 µg/mL (≈ 219 µM) | 250 µg/mL (≈ 439 µM) | 250 µg/mL (≈ 439 µM) |
